In BindingDB's records for doi:10.1021/jm010212m (Purdue University, 2001) one finds IC50 data, which are given here for ten compounds.

Bounds are passed on as bounds.

The target of one assay is T1, Gag-Pol polyprotein [588-1027]/[588-1147] (Human immunodeficiency virus 1, UniProt P04585).
T1 construct: 588-1027; 588-1147
Briefly: HIV-1 RT Assay.
Conditions: not given
In the case of `COC(=O)c1cc(C(=CCCCC(=O)OCC[Si](C)(C)C)c2cc(C)c(OC)c(C(=O)OC)c2)cc(C)c1OC` [methyl 2-methoxy-5-{1-[4-methoxy-3-(methoxycarbonyl)-5-methylphenyl]-6-oxo-6-[2-(trimethylsilyl)ethoxy]hex-1-en-1-yl}-3-methylbenzoate], the IC50 (usually the point on the concentration scale where inhibition reaches its midpoint) was more than 100 µM.

For `COC(=O)c1cc(C(=CCCCC(OC)OC)c2cc(Cl)c(OC)c(C(=O)OC)c2)cc(Cl)c1OC` [Alkenyldiarylmethane (ADAM) 38a], the IC50 was more than 100 µM.

For `CNC(=S)NCCC=C(c1cc(Cl)c(OC)c(C(=O)OC)c1)c1cc(Cl)c(OC)c(C(=O)OC)c1` [methyl 3-chloro-5-{1-[3-chloro-4-methoxy-5-(methoxycarbonyl)phenyl]-4-[(methylcarbamothioyl)amino]but-1-en-1-yl}-2-methoxybenzoate], the IC50 is more than 100 µM.

`COC(=O)c1cc(C(=CCCNC(C)=O)c2cc(Cl)c(OC)c(C(=O)OC)c2)cc(Cl)c1OC` [Methyl 5-{4-(Acetylamino)-1-[3-chloro-4-methoxy-5-(methoxycarbonyl)phenyl]but-1-enyl}-3-chloro-2-methoxybenzoate] came in with an IC50 of more than 100 µM.

On to `COC(=O)c1cc(C(=CCCCC(=O)N2CCCCC2)c2cc(Cl)c(OC)c(C(=O)OC)c2)cc(Cl)c1OC` [6,6-Bis(3-chloro-4-methoxy-5-methoxycarbonylphenyl)-1-piperidylhex-5-en-1-one], for which the IC50 was more than 100 µM.

`CCNC(=O)NCCC=C(c1cc(Cl)c(OC)c(C(=O)OC)c1)c1cc(Cl)c(OC)c(C(=O)OC)c1` [methyl 3-chloro-5-{1-[3-chloro-4-methoxy-5-(methoxycarbonyl)phenyl]-4-[(ethylcarbamoyl)amino]but-1-en-1-yl}-2-methoxybenzoate]: the IC50 was more than 100 µM.

The same assay, now with this note: pH 7.9.
As for `COC(=O)c1cc(C(=CCCCc2ccccc2)c2cc(Cl)c(OC)c(C(=O)OC)c2)cc(Cl)c1OC` [1,1-Bis[3-chloro-4-methoxy-5-(methoxycarbonyl)phenyl]-5-phenyl-1-pentene], the IC50 is more than 100 µM.

The compound `COC(=O)c1cc(C(=CCCCc2ccccc2)c2cc(Br)c(OC)c(C(=O)OC)c2)cc(Br)c1OC` [1,1-Bis[3-bromo-4-methoxy-5-(methoxycarbonyl)phenyl]-5-phenyl-1-pentene] yielded an IC50 of more than 100 µM.

`COC(=O)c1cc(C(=CCCCC(=O)OC(C)C)c2cc(Cl)c(OC)c(C(=O)OC)c2)cc(Cl)c1OC` [Alkenyldiarylmethane (ADAM) 25a] returned an IC50 of more than 100 µM.

With `COC(=O)CCCC=C(c1cc(C(=O)OC)c(OC)c(C(F)(F)F)c1)c1cc(C(=O)OC)c(OC)c(C(F)(F)F)c1` [Alkenyldiarylmethane (ADAM) 18a], the IC50 is more than 200 µM.
